{"source": "paper PMC11976443", "about": "(2025)", "test_system": "5' FAM-CoA-seq10 aptamer (DNA, aptamer) ATGCAGTCGGCGTCGGACAGGCAAAGGGGAGAGTGATTATAATCACTCGGGACATGGGATCTGTCCGACGATGTAACGCTTCAC", "assay": "fluorescence strand displacement", "conditions": "apparent; 50 nM aptamer, 1:5 3'-BHQ1 capture strand CTGTCCGACGCCGAC displaced", "data": [{"compound": "CC(C)(COP(=O)(O)OP(=O)(O)OC[C@H]1O[C@@H](n2cnc3c(N)ncnc32)[C@H](O)[C@@H]1OP(=O)(O)O)[C@@H](O)C(=O)NCCC(=O)NCCS", "values": [{"measurement": "Kd", "value": 1133, "unit": "µM"}]}]}
